“Also recorded” adds a separate entry of the source.
What was measured:
Type in all cases: in vivo, mouse
G6PC and PEPCK = assay: Quantitative PCR of hepatic gluconeogenic gene expression; conditions: SCID mice, six weeks twice-weekly s.c. 25 mg/kg VEGF Trap vs human Fc (FIG. 9)
C57Bl/6 mice = assay: Euglycemic, hyperinsulinemic clamp analyses; conditions: adult male C57Bl/6 mice
Description: Adult male C57Bl/6 mice (n=8 or 9) were used. * P=0.01 ** P=0.0001 for control vs. treatment.

[1] = tested on: insulin receptor (IR) signaling intermediates Akt, GSK-3β, FOXO1; assay: Western blot of liver extracts: phosphorylation of insulin receptor signaling intermediates; conditions: livers from VEGF Trap-treated mice (FIG. 8)
Description: (§1) FIG. 4 is a Western blot indicating increased hepatic insulin signaling following single intravenous injections of 5×10^8 pfu Ad Flt1 (VEGF inhibition) or Ad Fc (negative control) into adult C57Bl/6 mice. […] IR-β: b-subunit of the IR. * P≦0.05; n=5 animals each.
(§2) FIG. 8 is a digital image of a Western blot analysis.

db/db mice [2] = assay: Plasma insulin levels by ELISA in db/db mice; conditions: VEGF Trap vs hFc, ELISA (FIG. 31)
Experimental: FIG. 31 is a graph showing plasma insulin levels as determined by ELISA. * P=0.003 between VEGF Trap- and hFc-treated db/db mice. The hyperinsulinemia of db/db mice is corrected by VEGF Trap treatment.
FIGS. 28-29 illustrate that the chronic administration of VEGF Trap protein improves hepatic glucose tolerance in db/db mice. 10 week-old female db/db and db/+ mice (n=5) were treated with twice-weekly subcutaneous injections of 25 mg/kg VEGF Trap or control hFc.

HIF-2α = assay: Immunoblots of hepatic HIF-2α; conditions: C57Bl/6 mice, 14 days after single injection of 5×10^8 pfu Ad Flt1 vs Ad Fc (FIG. 11)
db/db mice [3] = assay: Ad libidum (fed) and fasting blood glucose levels in db/db mice; conditions: long-term twice-weekly s.c. 25 mg/kg VEGF Trap vs hFc (FIG. 28)
Description: FIG. 25 is a graph showing ad libidum and fasting blood glucose levels in mice. * P≦0.05 in the indicated treatment groups compared to control.
FIG. 28 is a graph showing ad libidum blood glucose levels. * P<0.04 between VEGF Trap- and hFc-treated db/db mice at the indicated time points.
FIG. 33 is a graph showing the fed and fasting blood glucose levels in db/db mice.
Db/db model. Db/db or wild-type mice received single intravenous injection of adenoviruses encoding Ad Flt (soluble VEGF receptor), Ad Fc (control antibody Fc fragment), VEGF Trap or control human Fc fragment, with or without adenovirus encoding shRNA against HIF-2α, or scrambled control shRNA. Adenovirus gives preferential and quantitative hepatocyte infection, a robust maneuver for achieving hepatic gene knockdown (Canettieri et al., (2005) Cell Metab. 2: 331; Taniguchi et al., (2005) J. Clin. Invest. 115: 718).
(§3) FIGS. 25-27 illustrate that VEGF inhibition and HIF-2α activation reverse the diabetic phenotype of db/db mice. The data of […] are from 10 week-old female db/db mice injected with 5×10^8 pfu of the indicated viruses.
FIGS. 28-29 illustrate that the chronic administration of VEGF Trap protein improves hepatic glucose tolerance in db/db mice. 10 week-old female db/db and db/+ mice (n=5) were treated with twice-weekly subcutaneous injections of 25 mg/kg VEGF Trap or control hFc. […]

IRS-2 = assay: Western blot of liver extracts: hepatic IRS-2 protein; conditions: livers from VEGF Trap-treated mice (FIG. 8)
Description: as §1, §2

db/db mice [4] = assay: Glucose tolerance test in db/db mice; conditions: twice-weekly s.c. 25 mg/kg VEGF Trap vs hFc, 0.5 g/kg glucose i.p. (FIGS. 29-30)
Experimental: FIG. 26 is a graph showing the results of glucose tolerance tests. 7 d after adenoviral infection, mice were given 0.5 g/kg glucose intraperitoneally and blood glucose levels were measured.
FIG. 29 is a graph showing the results of a glucose tolerance test in db/db mice. Mice were given 0.5 g/kg glucose intraperitoneally and blood glucose levels were measured. * P<0.03 between treatment groups at the indicated time points. Values are mean±s.e.m.
FIG. 30 is a graph showing the results of a glucose tolerance test in db/db mice. Mice were given 0.5 g/kg glucose intraperitoneally and blood glucose levels were measured. * P<0.03 between treatment groups at the indicated time points. Values are mean±s.e.m.
FIG. 32 is a graph showing the results of a glucose tolerance test in db/db mice. Mice were given 0.5 g/kg glucose intraperitoneally and blood glucose levels were measured. * P<0.02 between treatment groups at the indicated time points. Values are mean±s.e.m.
as §3
FIGS. 28-29 illustrate that the chronic administration of VEGF Trap protein improves hepatic glucose tolerance in db/db mice. […]

C57Bl/6 and SCID mice = assay: Ad libidum and fasting blood glucose levels in wild-type mice; conditions: 6 weeks of twice-weekly s.c. VEGF Trap vs human Fc (FIG. 6)

Which “hepatic expression of G6PC and PEPCK” value (G6PC and PEPCK) does the source give for “VEGF Trap: Ig domain 2 from VEGFR1 fused to Ig domain 3 from VEGFR2, fused to the Fc domain of IgG1 (Regeneron)” here?
Its value is “significantly reduced”.

And the “glucose infusion rate to maintain euglycemia” value (C57Bl/6 mice; hyperinsulinemic euglycemic clamp (FIG. 7A))?
Its value is “higher glucose infusion rate”.

What about the “insulin suppression of hepatic glucose production (insulin action in the liver)” value (C57Bl/6 mice; hyperinsulinemic euglycemic clamp (FIG. 7B)) of the same substance?
Its value is “increased insulin action in the liver”.

What about the “liver phospho-AKT levels” value [1] of the same substance?
The value was “higher levels”.

What about the “plasma insulin levels (hyperinsulinemia)” value (db/db mice [2]) of the same substance?
The value was “sustained correction; also recorded: corrected”.

What about the “hepatic HIF-2α stabilization” value (HIF-2α) of the same substance?
Its value is “increased stabilization”.

And the “ad libidum blood glucose levels (hyperglycemia)” value (db/db mice [3])?
Its value is “sustained correction”.

And the “liver IRS-2 levels” value (IRS-2)?
Its value is “higher levels”.

And the “glucose tolerance (GTT)” value (db/db mice [4])?
The value was “improved glucose tolerance; also recorded: improves”.

And the blood glucose levels (C57Bl/6 and SCID mice)?
Its blood glucose levels is “lowered”.

From US20100330098A1, “METHODS TO REGULATE GLUCOSE METABOLISM” (priority 2009, published 2010)
